Assay results from ChEMBL document CHEMBL3885881, “DrugMatrix”.

Species: Rattus norvegicus
Experiment: DrugMatrix - Regimen: Daily Repeat
Type: toxicity, organism-based, Sprague-Dawley
Design: regimen Daily Repeat, gender Male, age 6-8 weeks
Conditions: in vivo, po, […], route oral GAVAGE; for BASOPHIL / EOSINOPHIL / ERYTHROCYTE COUNT / HEMATOCRIT / HEMOGLOBIN / LEUKOCYTE COUNT / LYMPHOCYTE / MEAN CORPUSCULAR HEMOGLOBIN / MEAN CORPUSCULAR HEMOGLOBIN CONCENTRATION / MEAN CORPUSCULAR VOLUME / MONOCYTE / NEUTROPHIL / PLATELET COUNT / ABSOLUTE BASOPHIL / ABSOLUTE EOSINOPHIL / ABSOLUTE LYMPHOCYTE / ABSOLUTE MONOCYTE / ABSOLUTE SEGMENTED NEUTROPHIL / NUCLEATED RED BLOOD CELLS: tissue Blood; for ALANINE AMINOTRANSFERASE / ALBUMIN / ALKALINE PHOSPHATASE / ASPARTATE AMINOTRANSFERASE / BLOOD UREA NITROGEN / CHLORIDE / CHOLESTEROL / CREATINE PHOSPHOKINASE / CREATININE / GLUCOSE / PHOSPHORUS / POTASSIUM / SODIUM / TOTAL BILIRUBIN / TOTAL PROTEIN / CARBON DIOXIDE / LACTATE DEHYDROGENASE / LIPASE / URIC ACID: tissue Plasma
[1] = 11 mg/kg, dose level High, time 28 day
[2] = 72 h, dose 2.5 mg/Kg, dose level Low, time 3 day
[3] = 120 h, dose 2.5 mg/Kg, dose level Low, time 5 day

`O=[N+]([O-])c1cc([As](=O)(O)O)ccc1O` [ROXARSONE] was tested, and the BASOPHIL [1] was 0.47%, the EOSINOPHIL [1] was 0.51% and the “ERYTHROCYTE COUNT” value [1] was 8.5 x10E6/uL. For the same compound, the HEMATOCRIT [1] was 51.09%, the HEMOGLOBIN [1] was 16.79 G/DL and the “LEUKOCYTE COUNT” value [1] was 12.9 x10E3/uL. For the same compound, the LYMPHOCYTE [1] was 81.69%, the “MEAN CORPUSCULAR HEMOGLOBIN” value [1] was 19.74 pg and the “MEAN CORPUSCULAR HEMOGLOBIN CONCENTRATION” value [1] was 32.83 G/DL. For the same compound, the “MEAN CORPUSCULAR VOLUME” value [1] was 60.14 fL, the MONOCYTE [1] was 1.78% and the NEUTROPHIL [1] was 14.18%. The “PLATELET COUNT” value [1] was 1300.33 x10E3/uL, the “ALANINE AMINOTRANSFERASE” value [1] was 30.56 u/L and the ALBUMIN [1] was 3.98 G/DL. The “ALKALINE PHOSPHATASE” value [1] was 205 u/L, the “ASPARTATE AMINOTRANSFERASE” value [1] was 60.78 u/L and the “BLOOD UREA NITROGEN” value [1] was 11.78 mg/dL. For the same compound, the CHLORIDE [1] was 107.33 MEQ/L, the CHOLESTEROL [1] was 57.22 mg/dL and the “CREATINE PHOSPHOKINASE” value [1] was 179.11 u/L. For the same compound, the CREATININE [1] was 0.44 mg/dL, the GLUCOSE [1] was 136.78 mg/dL and the PHOSPHORUS [1] was 11.58 mg/dL. The POTASSIUM [1] was 6.69 MEQ/L, the SODIUM [1] was 152.22 MEQ/L and the “TOTAL BILIRUBIN” value [1] was 0.23 mg/dL. For the same compound, the “TOTAL PROTEIN” value [1] was 6.68 G/DL, the “ABSOLUTE BASOPHIL” value [2] was 0 CELLS/uL and the “ABSOLUTE EOSINOPHIL” value [2] was 0 CELLS/uL. For the same compound, the “ABSOLUTE LYMPHOCYTE” value [2] was 9950.67 CELLS/uL, the “ABSOLUTE MONOCYTE” value [2] was 307.67 CELLS/uL and the “ABSOLUTE SEGMENTED NEUTROPHIL” value [2] was 1408.33 CELLS/uL. For the same compound, the BASOPHIL [2] was 0%, the EOSINOPHIL [2] was 0% and the “ERYTHROCYTE COUNT” value [2] was 5.09 x10E6/uL. The HEMATOCRIT [2] was 33.27%, the HEMOGLOBIN [2] was 13.17 G/DL and the “LEUKOCYTE COUNT” value [2] was 11.67 x10E3/uL. For the same compound, the LYMPHOCYTE [2] was 85.33%, the “MEAN CORPUSCULAR HEMOGLOBIN” value [2] was 25.9 pg and the “MEAN CORPUSCULAR HEMOGLOBIN CONCENTRATION” value [2] was 39.6 G/DL. The “MEAN CORPUSCULAR VOLUME” value [2] was 65.4 fL, the MONOCYTE [2] was 2.67% and the NEUTROPHIL [2] was 12%. For the same compound, the “NUCLEATED RED BLOOD CELLS” value [2] was 0 /100WBC, the “PLATELET COUNT” value [2] was 1052.67 x10E3/uL and the “ALANINE AMINOTRANSFERASE” value [2] was 79.33 u/L. The ALBUMIN [2] was 4.07 G/DL, the “ALKALINE PHOSPHATASE” value [2] was 426.33 u/L and the “ASPARTATE AMINOTRANSFERASE” value [2] was 104 u/L. The “BLOOD UREA NITROGEN” value [2] was 11 mg/dL, the “CARBON DIOXIDE” value [2] was 22 mmol/L and the CHLORIDE [2] was 103.67 MEQ/L. For the same compound, the CHOLESTEROL [2] was 66.33 mg/dL, the “CREATINE PHOSPHOKINASE” value [2] was 289.33 u/L and the CREATININE [2] was 0.18 mg/dL. The GLUCOSE [2] was 163.33 mg/dL, the “LACTATE DEHYDROGENASE” value [2] was 290.33 u/L and the LIPASE [2] was 12.33 u/L. For the same compound, the PHOSPHORUS [2] was 11 mg/dL, the POTASSIUM [2] was 6.16 MEQ/L and the SODIUM [2] was 142.77 MEQ/L. For the same compound, the “TOTAL BILIRUBIN” value [2] was 0.2 mg/dL, the “TOTAL PROTEIN” value [2] was 5.47 G/DL and the “URIC ACID” value [2] was 1.57 mg/dL. For the same compound, the “ABSOLUTE BASOPHIL” value [3] was 0 CELLS/uL, the “ABSOLUTE EOSINOPHIL” value [3] was 60.33 CELLS/uL and the “ABSOLUTE LYMPHOCYTE” value [3] was 15548.33 CELLS/uL. For the same compound, the “ABSOLUTE MONOCYTE” value [3] was 0 CELLS/uL, the “ABSOLUTE SEGMENTED NEUTROPHIL” value [3] was 2058 CELLS/uL and the BASOPHIL [3] was 0%. For the same compound, the EOSINOPHIL [3] was 0.33%, the “ERYTHROCYTE COUNT” value [3] was 5.56 x10E6/uL and the HEMATOCRIT [3] was 35.6%. The HEMOGLOBIN [3] was 14.43 G/DL, the “LEUKOCYTE COUNT” value [3] was 17.67 x10E3/uL and the LYMPHOCYTE [3] was 88%. The “MEAN CORPUSCULAR HEMOGLOBIN” value [3] was 26 pg, the “MEAN CORPUSCULAR HEMOGLOBIN CONCENTRATION” value [3] was 40.53 G/DL and the “MEAN CORPUSCULAR VOLUME” value [3] was 64.1 fL. The MONOCYTE [3] was 0%, the NEUTROPHIL [3] was 11.67% and the “NUCLEATED RED BLOOD CELLS” value [3] was 0.33 /100WBC. The “PLATELET COUNT” value [3] was 1233.67 x10E3/uL, the “ALANINE AMINOTRANSFERASE” value [3] was 63.33 u/L and the ALBUMIN [3] was 4.23 G/DL. The “ALKALINE PHOSPHATASE” value [3] was 389.33 u/L, the “ASPARTATE AMINOTRANSFERASE” value [3] was 94 u/L and the “BLOOD UREA NITROGEN” value [3] was 13 mg/dL. For the same compound, the “CARBON DIOXIDE” value [3] was 32.33 mmol/L, the CHLORIDE [3] was 100.67 MEQ/L and the CHOLESTEROL [3] was 60.67 mg/dL. For the same compound, the “CREATINE PHOSPHOKINASE” value [3] was 298.67 u/L, the CREATININE [3] was 0.18 mg/dL and the GLUCOSE [3] was 151 mg/dL. For the same compound, the “LACTATE DEHYDROGENASE” value [3] was 370 u/L, the LIPASE [3] was 11.67 u/L and the PHOSPHORUS [3] was 10.73 mg/dL. For the same compound, the POTASSIUM [3] was 6.25 MEQ/L, the SODIUM [3] was 142.83 MEQ/L and the “TOTAL BILIRUBIN” value [3] was 0.2 mg/dL. For the same compound, the “TOTAL PROTEIN” value [3] was 6.03 G/DL and the “URIC ACID” value [3] was 1.77 mg/dL.
